Read-outs that look alike come from different tables or passages of the source.
Assays:
[1] = Pharmacokinetics in rats after intravenous infusion and oral gavage; assay type: in vivo
Protocol: The compound of Example 4, 3-[Bis-(4-chloro-phenyl)-methanesulfonyl]-1,1,1-trifluoro-propan-2-one, was administered to rats via a 5-minute intravenous infusion at 0.175 mg/mL (solution in 5% DMA/95% Tris base (50 mM in water)) and oral gavage at 0.35 mg/mL (suspension in 5% (w/v) PEG 200/95% (w/v) methylcellulose (0.5%)). Following intravenous administration of a 0.5 mg/kg dose to rats, the systemic clearance was about 0.06 mL/min/kg and the volume of distribution was about 0.2 L/kg. […] Following a 1 mg/kg oral dose, the compound of Example 4 was absorbed in rats with mean peak plasma levels of 6 μg/mL occurring approximately 2.5 hours after dosing. Based on the ratio of the dose-normalized area under the plasma concentration-time curve from 0 to 96 hour after oral and intravenous doses, the absolute oral bioavailability averaged about 100%. […]

[2] = Plasma stability in rat plasma and acidified rat plasma (LC/MS); assay type: in vitro ADME; conditions: 1 μg/mL, 1 hour at room temperature or 37° C.
Protocol: Plasma stability studies were conducted on (Di-p-tolyl-methanesulfonyl)-acetic acid methyl ester and [bis-(4-chloro-phenyl)-methanesulfonyl]-acetic acid methyl ester. Briefly, these compounds (at a final concentration of 1 μg/mL) were separately inclubated in rat plasma and acidified rat plasma for 1 hour at room temperature or 37° C.

[3] = tested on: MCP-1 response in THP-1 cells; assay: Calcium flux in THP-1 cells stimulated with human MCP-1 (FLIPR); assay type: cell-based; conditions: read-out: Calcium Flux IC50
Protocol: Compounds of were evaluated for their effect on calcium flux using methodology known in the art, e.g., Neote et al., Cell 1993, 72:415–425. Briefly, THP-1 cells were incubated with the fluorescence dye FLUO-4 for 1 hour, the cells were washed after this loading period, resuspended in HANKs buffer, and loaded into a 384-well plate. The cells were then incubated in the presence of a compound of Example 1–12, 14, 18, 22–23, 27–28, 30, or [bis-(4-chloro-phenyl)-methanesulfonyl]-acetic acid methyl ester. After a 30-minute incubation period, the cells were stimulated with 33 nM human MCP-1 and the calcium flux response recorded and quantified with a FLIPR^384® (384-well Fluorometric Imaging Plate Reader) ([…], Sunnyvale, Calif.). The IC50's (μM) of the inhibition of the maximal MCP-1 response are set out in Table 1.

[4] = target: T1, MCP-1 receptor (300-19 cell membranes) (Homo sapiens, UniProt P41597); assay: Inhibition of binding of 125I-MCP-1 to 300-19 cell membranes
T1 construct: host or cells: 300-19 cells (membrane preparation)
T1 sequence (P41597 whole entry): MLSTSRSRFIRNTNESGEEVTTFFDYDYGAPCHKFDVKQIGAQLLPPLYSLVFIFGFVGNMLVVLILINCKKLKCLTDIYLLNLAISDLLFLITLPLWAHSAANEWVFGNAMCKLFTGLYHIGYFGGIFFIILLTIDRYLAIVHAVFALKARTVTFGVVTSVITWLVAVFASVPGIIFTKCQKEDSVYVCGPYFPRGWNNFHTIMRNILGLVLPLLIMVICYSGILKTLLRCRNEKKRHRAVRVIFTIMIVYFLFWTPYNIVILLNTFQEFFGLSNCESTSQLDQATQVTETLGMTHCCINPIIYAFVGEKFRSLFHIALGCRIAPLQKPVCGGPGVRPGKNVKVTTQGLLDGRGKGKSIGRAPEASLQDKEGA
Protocol: Compounds were also assayed for their ability to inhibit the binding of radiolabeled MCP-1 to cell membranes. The materials and methods are set out below.
Membrane Preparation. 300-19 cells were harvested by centrifugation and washed with PBS (Dulbecco's phosphate-buffered saline w/o Ca and Mg). Cells were frozen at −80° C. overnight then resuspensed in ice cold lysis buffer (5 mM HEPES, 2 mM EDTA, 10 μg/mL of leupeptin, aprotinin, and chymostatin, and 200 μg/mL PMSF). The cell suspension was centrifuged at 1,000 rpm for 10 minutes and the supernatant was transferred and centrifuged at 14,000 rpm for 45 minutes at 4° C. then discarded. The resulting pellet was resuspended in stock buffer (10 mM HEPES, 300 mM sucrose, 20 μg/mL of leupeptin, aprotinin, and chymostatin, and 200 μg/mL PMSF), aliquoted, and frozen at −80° C. until use. Typical binding assays used 1.0 μg/well protein.
Prepared membranes were resuspended in binding buffer (50 mM Tris, 10 mM MgCl2, 1 mM EDTA pH 7.4) at 10 μg/mL protein. Membranes (1.0 μg/well) were incubated with ^125I-MCP-1 (0.15 nM) in the absence or presence of unlabeled chemokine (465 nM) or a compound of Examples 1–11, 14, 16, 19, 22, 27–30, 33–34, or [bis-(4-chloro-phenyl)-methanesulfonyl]-acetic acid methyl ester (0.001 μM–40 μM) for 3 hours at room temperature in a 96-well plate (total volume 250 μL). The reaction was terminated by filtration using a 96-well plate harvester (Packard Filtermate 196 Harvester). Filters (Packard GF/C) were prewet with 0.3% PEI containing 0.5% BSA and washed 5 times with wash buffer (DPBS, 0.3 MnCl2, and 0.25% BSA) prior to reaction termination. After terminating the reaction, filters were washed 6 times with wash buffer, and allowed to dry overnight. Scintillation fluid (Packard's Micro Scint 20) was added to each well and radioactivity bound was determined by liquid scintillation spectrometry. Nonspecific binding was determined in the presence of 465 nM unlabeled MCP-1. The IC50's (μM) of the inhibition of the binding of the iodinated MCP-1 are set out in Table 2.

[5] = 0.5 h, THP-1 cells, 30-minute incubation, stimulated with 33 nM human MCP-1, inhibition of the maximal MCP-1 response
[6] = 300-19 cell membranes 1.0 μg/well, 125I-MCP-1 0.15 nM, 3 hours at room temperature, read-out: IC50 of the inhibition of the binding of the iodinated MCP-1

| Compound | compound remaining after incubation in plasma [2] | IC50 [3, 5] | IC50 [4, 6] | bioavailability ([1]; rat, in vivo) | half-life ([1]; rat, in vivo) | melting point | mean peak plasma levels ([1]; rat, in vivo, po, 5 mg/kg) | time of peak plasma levels after dosing ([1]; rat, in vivo, po, 5 mg/kg) | also measured |
| --- | --- | --- | --- | --- | --- | --- | --- | --- | --- |
| COC(=O)CS(=O)(=O)C(c1ccc(C)cc1)c1ccc(C)cc1 [(Di-p-tolyl-methanesulfonyl)-acetic acid methyl ester, reference compound] | below the lower limit of quantitation | – | – | – | – | – | – | – | plasma concentrations after intravenous or oral administration ([1]; rats, 1 mg/kg intravenous infusion or 5 mg/kg oral gavage, LC/MS): below the lower limit of quantitation |
| O=C(CS(=O)(=O)C(c1ccc(Cl)cc1)c1ccc(Cl)cc1)C(F)(F)F [Example 4, 3-[Bis-(4-chloro-phenyl)-methanesulfonyl]-1,1,1-trifluoro-propan-2-one] | – | 0.495 µM | 0.175 µM | ~100% | ~47 h | 60 to 62 °C | – | – | Vd ([1]; rat, in vivo, iv, 0.5 mg/kg): ~0.2 L/kg; clearance ([1]; rat, in vivo, iv, 0.5 mg/kg): ~0.06 mL/min/kg; mean peak plasma levels ([1]; rat, in vivo, po, 1 mg/kg): 6 µg/mL; time of peak plasma levels after dosing ([1]; rat, in vivo, po, 1 mg/kg): approximately 2.5 hours |
| O=C(CF)CS(=O)(=O)C(c1ccc(Cl)cc1)c1ccc(Cl)cc1 [Example 7, 3-[Bis-(4-chloro-phenyl)-methanesulfonyl]-1-fluoro-propan-2-one] | – | 0.423 µM | 0.101 µM | < 10% | 1.5 h | 55 to 58 °C | 0.359 µg/mL | 15 min | decrease in concentrations within 2 hours after dosing ([1]; rat, in vivo, iv, 1 mg/kg): > 100 fold; time for which plasma concentrations were measurable after dosing ([1]; rat, in vivo, po, 5 mg/kg): 4 h |
| O=C(CS(=O)(=O)C(c1ccc(Cl)cc1)c1ccc(Cl)cc1)C(F)F [Example 8, 3-[Bis-(4-chloro-phenyl)-methanesulfonyl]-1,1-difluoro-propan-2-one] | – | 0.108 µM | 0.088 µM | ~43% | 7 h | – | about 7 μg/mL | 30 to 60 min | Vd ([1]; rat, in vivo, iv, 1 mg/kg): 0.28 L/kg; clearance ([1]; rat, in vivo, iv, 1 mg/kg): 0.75 mL/min/kg |
| COC(=O)CS(=O)(=O)C(c1ccc(Cl)cc1)c1ccc(Cl)cc1 [[Bis-(4-chloro-phenyl)-methanesulfonyl]-acetic acid methyl ester, reference compound] | below the lower limit of quantitation | – | – | – | – | – | – | – | IC50 ([3]; Homo sapiens, THP-1, 0.5 h): 0.15 µM; IC50 [4]: 7.32 µM |

Reference: patent publication US7067538B2, “MCP-1 receptor antagonists and methods of use thereof” (Warner-Lambert Company, LLC, priority 2002, dated 2006)
